Measurements reported in ChEMBL document CHEMBL1201862, “PubChem BioAssay data set” (2004).
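Compound exposure: 48 hours, 5 concentrations, 96-well plates. GI50 = concentration required for 50% inhibition of growth.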 Active and inactive are the calls of the source. No stated cut-off is given here; in the data, active = GI50 up to about 1.1 µM and inactive = higher.

What was measured:
Assay in all cases: NCI anticancer screen, dose series, 48 h
BT-549 = test system: BT-549
UO-31 = test system: UO-31
M14 = test system: M14
NCI/ADR-RES = test system: NCI/ADR-RES
LOX IMVI = test system: LOX IMVI
HT-29 = test system: HT-29
SR = test system: SR
MDA-N = test system: MDA-N
U-251 = test system: U-251
PC-3 = test system: PC-3
HL-60 = test system: HL-60
SF-268 = test system: SF-268
MOLT-4 = test system: MOLT-4
ACHN = test system: ACHN
TK-10 = test system: TK-10
MCF7 = test system: MCF7
HCT-15 = test system: HCT-15
SK-MEL-2 = test system: SK-MEL-2
HCC 2998 = test system: HCC 2998

Measured: GI50

O=C1C=CC(=O)[C@H]2C3C=CC(C4C3C3(Cl)C(Cl)=C(Cl)[C@]4(Cl)C3(Cl)Cl)[C@@H]12 (stereo partly specified)
inactive: BT-549 5.96 µM | UO-31 10.3 µM | M14 4.3 µM | NCI/ADR-RES 5.83 µM | LOX IMVI 3.32 µM | HT-29 3.66 µM | SR 1.66 µM | MDA-N 4.52 µM | U-251 3.46 µM | PC-3 4.94 µM | HL-60 1.57 µM | SF-268 5.71 µM | MOLT-4 3.75 µM | ACHN 8.55 µM | TK-10 16.8 µM | MCF7 3.91 µM | SK-MEL-2 7.76 µM
4.11 µM: HCT-15

Cc1cn([C@H]2C[C@@H]3[C@@H](COC(CCl)N3O)O2)c(=O)[nH]c1=O (stereo partly specified)
> 100 µM: HCT-15
inactive: BT-549 > 100 µM | UO-31 > 100 µM | M14 > 100 µM | NCI/ADR-RES > 100 µM | LOX IMVI > 100 µM | HT-29 > 100 µM | SR > 100 µM | MDA-N > 100 µM | U-251 > 100 µM | PC-3 > 100 µM | HL-60 > 100 µM | SF-268 > 100 µM | MOLT-4 > 100 µM | TK-10 > 100 µM | MCF7 > 100 µM | SK-MEL-2 > 100 µM

Cc1cccc(NC(=O)/C=C/c2ccc([N+](=O)[O-])cc2)c1
> 35.1 µM: HCT-15
inactive: BT-549 > 34.5 µM | UO-31 > 35.5 µM | M14 > 43.4 µM | NCI/ADR-RES 29.8 µM | LOX IMVI > 36.3 µM | HT-29 35 µM | SR 11.7 µM | MDA-N > 30.7 µM | U-251 > 38 µM | HCC 2998 16.6 µM | PC-3 14.7 µM | SF-268 38.3 µM | MOLT-4 > 36.4 µM | ACHN 14.9 µM | TK-10 > 41.5 µM | MCF7 > 22.3 µM | SK-MEL-2 20 µM

Oc1ccc2c(c1)-c1c(c3ccccc3n1CCN1CCOCC1)CC2
inactive: BT-549 43.7 µM | UO-31 33.9 µM | M14 27.2 µM | NCI/ADR-RES 32.7 µM | LOX IMVI 39.7 µM | HT-29 39.6 µM | SR > 100 µM | MDA-N 33.7 µM | U-251 42.3 µM | PC-3 32.2 µM | HL-60 > 100 µM | SF-268 59.4 µM | MOLT-4 > 100 µM | ACHN 23.1 µM | TK-10 28.6 µM | MCF7 37.2 µM | SK-MEL-2 25 µM
39.7 µM: HCT-15

COc1cc2ccnc3c2c(c1OC)N(C)C=C3
26.9 µM: HCT-15
inactive: BT-549 33 µM | UO-31 14.2 µM | M14 26.3 µM | NCI/ADR-RES 24.3 µM | LOX IMVI 21.5 µM | SR 21.3 µM | MDA-N 19.1 µM | U-251 35.2 µM | HCC 2998 16.4 µM | PC-3 31.9 µM | SF-268 35.2 µM | MOLT-4 30 µM | ACHN 16.1 µM | TK-10 35.3 µM | MCF7 16.6 µM | SK-MEL-2 23.1 µM

NNC(=O)C(O)C(O)C(=O)NN (stereo unspecified)
inactive: BT-549 > 100 µM | UO-31 > 100 µM | M14 > 100 µM | NCI/ADR-RES > 100 µM | LOX IMVI 65.9 µM | HT-29 > 100 µM | SR 57.5 µM | MDA-N > 100 µM | U-251 > 100 µM | HCC 2998 > 100 µM | PC-3 > 100 µM | SF-268 > 100 µM | MOLT-4 64.3 µM | ACHN > 100 µM | TK-10 > 100 µM | MCF7 > 100 µM | SK-MEL-2 > 100 µM
> 100 µM: HCT-15

O=C1N/N=C\c2ccc(cc2)OCc2cccc(n2)COc2ccc(cc2)/C=N\NC1=O
inactive: BT-549 > 25 µM | UO-31 > 25 µM | M14 > 25 µM | NCI/ADR-RES > 25 µM | HT-29 > 25 µM | SR > 25 µM | MDA-N > 25 µM | U-251 > 25 µM | PC-3 > 25 µM | HL-60 > 25 µM | SF-268 > 25 µM | MOLT-4 > 25 µM | ACHN > 25 µM | TK-10 > 25 µM | MCF7 > 25 µM | SK-MEL-2 > 25 µM
> 25 µM: HCT-15

CC(C)C(=O)NCC[C@@H](CNC(=O)OC(C)(C)C)NC(=O)OC(C)(C)C
inactive: BT-549 > 100 µM | UO-31 > 100 µM | M14 > 100 µM | NCI/ADR-RES > 100 µM | HT-29 > 100 µM | SR > 100 µM | MDA-N > 100 µM | U-251 > 100 µM | HCC 2998 > 100 µM | PC-3 > 100 µM | SF-268 > 100 µM | MOLT-4 > 100 µM | ACHN > 100 µM | TK-10 > 100 µM | MCF7 > 100 µM | SK-MEL-2 > 100 µM
> 100 µM: HCT-15

Cc1cc(C2(c3cc(C)c(O)c4ncccc34)OC(=O)c3ccccc32)c2cccnc2c1O
active: BT-549 0.031 µM | UO-31 0.00574 µM | M14 0.0625 µM | NCI/ADR-RES 0.0344 µM | LOX IMVI 0.00601 µM | HT-29 0.0406 µM | MDA-N 0.00925 µM | U-251 0.0288 µM | HCC 2998 0.0468 µM | PC-3 0.265 µM | HL-60 0.0247 µM | SF-268 0.0121 µM | MOLT-4 0.522 µM | ACHN 0.00662 µM | MCF7 < 0.001 µM | SK-MEL-2 0.262 µM
< 0.001 µM: HCT-15
inactive: TK-10 > 10 µM

CC(=O)Nc1ccc(/C=C/[N+](=O)[O-])cc1
2.33 µM: HCT-15
active: SR 0.404 µM
inactive: BT-549 6.15 µM | UO-31 2 µM | M14 2.59 µM | NCI/ADR-RES 8.09 µM | LOX IMVI 1.71 µM | HT-29 1.85 µM | MDA-N 2.24 µM | U-251 3.15 µM | PC-3 5.71 µM | HL-60 2.84 µM | SF-268 4.67 µM | MOLT-4 1.96 µM | ACHN 3.42 µM | TK-10 1.75 µM | MCF7 2.79 µM | SK-MEL-2 9.66 µM

O=C(O)CCc1nc(-c2ccccc2-n2cccc2)no1
> 100 µM: HCT-15
inactive: BT-549 > 100 µM | UO-31 > 100 µM | M14 89.1 µM | NCI/ADR-RES > 100 µM | LOX IMVI > 100 µM | HT-29 57.3 µM | SR 5.46 µM | MDA-N 31.4 µM | U-251 > 100 µM | HCC 2998 > 100 µM | PC-3 > 100 µM | SF-268 > 100 µM | ACHN > 100 µM | TK-10 > 100 µM | MCF7 49.3 µM | SK-MEL-2 > 100 µM

C=C(Br)C/N=C/N(C)C
> 100 µM: HCT-15
inactive: BT-549 > 100 µM | UO-31 > 100 µM | M14 > 100 µM | NCI/ADR-RES > 100 µM | LOX IMVI > 100 µM | HT-29 > 100 µM | SR > 100 µM | MDA-N > 100 µM | U-251 > 100 µM | PC-3 > 100 µM | HL-60 > 100 µM | SF-268 > 100 µM | MOLT-4 > 100 µM | ACHN > 100 µM | TK-10 > 100 µM | MCF7 > 100 µM | SK-MEL-2 > 100 µM

CC1CC(Br)C(=O)O1 (stereo unspecified)
> 100 µM: HCT-15
inactive: BT-549 > 100 µM | UO-31 > 100 µM | M14 > 100 µM | NCI/ADR-RES > 100 µM | LOX IMVI > 100 µM | HT-29 > 100 µM | MDA-N > 100 µM | U-251 > 100 µM | HCC 2998 > 100 µM | PC-3 > 100 µM | HL-60 > 100 µM | SF-268 > 100 µM | MOLT-4 > 100 µM | ACHN > 100 µM | TK-10 > 100 µM | MCF7 > 100 µM | SK-MEL-2 > 100 µM

COc1ccc(C2SCC(=O)N2c2ccc(-c3ccc(-n4c(-c5ccccc5)nc5ccccc5c4=O)cc3)cc2)cc1OC (stereo unspecified)
> 100 µM: HCT-15
inactive: BT-549 18.5 µM | UO-31 44.2 µM | M14 52.7 µM | NCI/ADR-RES 61.2 µM | LOX IMVI 17.8 µM | HT-29 45.2 µM | SR 26.2 µM | MDA-N 59.7 µM | U-251 43.8 µM | PC-3 42 µM | HL-60 30.8 µM | SF-268 43.5 µM | MOLT-4 22.4 µM | TK-10 25.2 µM | MCF7 27.7 µM

COc1cc2c(cc1OC)-c1cc3ccccc3c(=O)n1CCC2
inactive: BT-549 13.1 µM | UO-31 13 µM | M14 14.8 µM | NCI/ADR-RES 5.27 µM | LOX IMVI 2.66 µM | HT-29 4.17 µM | MDA-N 3.56 µM | U-251 6.49 µM | HCC 2998 13.7 µM | PC-3 8.51 µM | HL-60 2.58 µM | SF-268 13.3 µM | MOLT-4 1.89 µM | ACHN 13.4 µM | TK-10 16.3 µM | MCF7 7.71 µM | SK-MEL-2 29.3 µM
2.07 µM: HCT-15

O=c1[nH]c(N/N=C\C(=N/Nc2nc3ccccc3c(=O)[nH]2)C(O)C(O)C(O)CO)nc2ccccc12 (stereo unspecified)
inactive: BT-549 > 100 µM | UO-31 > 100 µM | M14 > 100 µM | NCI/ADR-RES > 100 µM | LOX IMVI > 100 µM | HT-29 > 100 µM | SR > 100 µM | MDA-N > 100 µM | U-251 > 100 µM | PC-3 > 100 µM | HL-60 > 100 µM | SF-268 > 100 µM | MOLT-4 > 100 µM | ACHN > 100 µM | TK-10 > 100 µM | MCF7 > 100 µM | SK-MEL-2 > 100 µM
> 100 µM: HCT-15
